Experimental data as given in ChEMBL document CHEMBL5137093, “Improving Drug Delivery While Tailoring Prodrug Activation to Modulate Cmax and Cmin by Optimization of (Carbonyl)oxyalkyl Linker-Based Prodrugs of Atazanavir” (J Med Chem, 2022).

Tests used:
[1] = Aqueous stability of the compound in phosphate buffer at pH 6.5 assessed as compound half life measured after 24 hrs by UPLC analysis; assay type: physicochemical; conditions: buffer, pH 6.5, 24 h, 24 h
[2] = Aqueous solubility of compound at pH 1 by UPLC analysis; assay type: physicochemical; conditions: buffer
[3] = Aqueous solubility of compound at pH 4 by UPLC analysis; assay type: physicochemical; conditions: buffer
[4] = Cmax in Sprague-Dawley rat at 3 ml/kg,po measured upto 24 hrs by UPLC-MS/MS analysis; assay type: ADME; design: dose 3 ml/kg, time < 24 hrs, route po; conditions: Sprague-Dawley, in vivo, 3 ml/kg
[5] = Tmax in Sprague-Dawley rat at 3 ml/kg,po measured upto 24 hrs by UPLC-MS/MS analysis; assay type: ADME; conditions: Sprague-Dawley, in vivo, read-out: Tmax
[6] = AUClast in Sprague-Dawley rat at 3 ml/kg,po measured upto 24 hrs by UPLC-MS/MS analysis; assay type: ADME; design: time < 24 hrs, dose 3 ml/kg, route po; conditions: Sprague-Dawley, in vivo, 3 ml/kg
[7] = Relative Cmax ratio of Atazanavir in Sprague-Dawley rat at 3 ml/kg,po measured upto 24 hrs by UPLC-MS/MS analysis; assay type: ADME; conditions: in vivo
[8] = Relative AUC ratio of Atazanavir in Sprague-Dawley rat at 3 ml/kg,po measured upto 24 hrs by UPLC-MS/MS analysis; assay type: ADME; conditions: in vivo
[9] = Fold ratio of total AUC of Atazanavir in Sprague-Dawley rat at 3 ml/kg,po measured upto 24 hrs by UPLC-MS/MS analysis; assay type: ADME; conditions: in vivo
[10] = Ratio of Cmax/Cmin of Atazanavir in Sprague-Dawley rat at 3 ml/kg,po measured after 24 hrs by UPLC-MS/MS analysis; assay type: ADME; conditions: in vivo
[11] = Ratio of AUC of Atazanavir in Sprague-Dawley rat at 3 ml/kg,po measured upto 24 hrs by UPLC-MS/MS analysis; assay type: ADME; conditions: in vivo
[12] = Half life in rat hepatocyte measured upto 120 mins by UPLC-MS/MS analysis; assay type: ADME, cell-based; conditions: hepatocytes
[13] = Half life in rat hepatocyte measured upto 120 mins in presence of ABT by UPLC-MS/MS analysis; assay type: ADME, cell-based; conditions: hepatocytes, with ABT
[14] = Half life in rat hepatocyte measured upto 120 mins in presence of PMSF by UPLC-MS/MS analysis; assay type: ADME, cell-based; conditions: hepatocytes, with PMSF
[15] = Half life in rat hepatocyte measured upto 120 mins in presence of PMSF and ABT by UPLC-MS/MS analysis; assay type: ADME, cell-based; conditions: hepatocytes, with PMSF and ABT
[16] = Metabolic stability in rat liver microsomes assessed as half life; assay type: ADME, Microsome
[17] = Metabolic stability in dog liver microsomes assessed as half life; assay type: ADME, Canis lupus familiaris, Microsome
[18] = Metabolic stability in monkey liver microsomes assessed as half life; assay type: ADME, Macaca mulatta, Microsome; conditions: rhesus monkey
[19] = Metabolic stability in human liver microsomes assessed as half life; assay type: ADME, Microsome
[20] = Metabolic stability in rat intestine microsomes assessed as half life; assay type: ADME, Microsome
[21] = Metabolic stability in dog intestine microsomes assessed as half life; assay type: ADME, Canis lupus familiaris, Microsome
[22] = Metabolic stability in monkey intestine microsomes assessed as half life; assay type: ADME, Macaca mulatta, Microsome; conditions: rhesus monkey
[23] = Metabolic stability in human intestine microsomes assessed as half life; assay type: ADME, Microsome
[24] = Metabolic stability in rat liver microsomes assessed as half life in presence of NADPH; assay type: ADME, Microsome
[25] = Metabolic stability in dog liver microsomes assessed as half life in presence of NADPH; assay type: ADME, Canis lupus familiaris, Microsome
[26] = Metabolic stability in monkey liver microsomes assessed as half life in presence of NADPH; assay type: ADME, Macaca mulatta, Microsome; conditions: rhesus monkey
[27] = Metabolic stability in human liver microsomes assessed as half life in presence of NADPH; assay type: ADME, Microsome
[28] = Metabolic stability in rat intestine microsomes assessed as half life in presence of NADPH; assay type: ADME, Microsome
[29] = Metabolic stability in dog intestine microsomes assessed as half life in presence of NADPH; assay type: ADME, Canis lupus familiaris, Microsome
[30] = Metabolic stability in monkey intestine microsomes assessed as half life in presence of NADPH; assay type: ADME, Macaca mulatta, Microsome; conditions: rhesus monkey
[31] = Metabolic stability in human intestine microsomes assessed as half life in presence of NADPH; assay type: ADME, Microsome
[32] = Cmax in Sprague-Dawley rat at 30 ml/kg,po measured upto 24 hrs by UPLC-MS/MS analysis; assay type: ADME; design: time < 24 hrs, dose 30 ml/kg, route po; conditions: in vivo
[33] = Tmax in Sprague-Dawley rat at 30 ml/kg,po measured upto 24 hrs by UPLC-MS/MS analysis; assay type: ADME; conditions: in vivo
[34] = AUClast in Sprague-Dawley rat at 30 ml/kg,po measured upto 24 hrs by UPLC-MS/MS analysis; assay type: ADME; design: time < 24 hrs, dose 30 ml/kg, route po; conditions: in vivo
[35] = Relative Cmax ratio of Atazanavir in Sprague-Dawley rat at 30 ml/kg,po measured upto 24 hrs by UPLC-MS/MS analysis; assay type: ADME; conditions: in vivo
[36] = Relative AUC ratio of Atazanavir in Sprague-Dawley rat at 30 ml/kg,po measured upto 24 hrs by UPLC-MS/MS analysis; assay type: ADME; conditions: in vivo
[37] = Fold ratio of total AUC of Atazanavir in Sprague-Dawley rat at 30 ml/kg,po measured upto 24 hrs by UPLC-MS/MS analysis; assay type: ADME; conditions: in vivo
[38] = Ratio of Cmax/Cmin of Atazanavir in Sprague-Dawley rat at 30 ml/kg,po measured after 24 hrs by UPLC-MS/MS analysis; assay type: ADME; conditions: in vivo
[39] = Ratio of AUC of Atazanavir in Sprague-Dawley rat at 30 ml/kg,po measured upto 24 hrs by UPLC-MS/MS analysis; assay type: ADME; conditions: in vivo
[40] = Cmax in Sprague-Dawley rat at 1 ml/kg,iv measured upto 24 hrs by UPLC-MS/MS analysis; assay type: ADME; design: dose 1 ml/kg, time < 24 hrs, route iv; conditions: in vivo
[41] = AUClast in Sprague-Dawley rat at 1 ml/kg,iv measured upto 24 hrs by UPLC-MS/MS analysis; assay type: ADME; design: dose 1 ml/kg, time < 24 hrs, route iv; conditions: in vivo
[42] = Cmin in Sprague-Dawley rat at 1 ml/kg,iv measured after 24 hrs by UPLC-MS/MS analysis; assay type: ADME; conditions: in vivo, read-out: Cmin
[43] = Clearance in Sprague-Dawley rat at 1 ml/kg,iv measured upto 24 hrs by UPLC-MS/MS analysis; assay type: ADME; conditions: in vivo
[44] = Half life in Sprague-Dawley rat at 1 ml/kg,iv measured upto 24 hrs by UPLC-MS/MS analysis; assay type: ADME; conditions: in vivo
[45] = Volume of distribution at steady state in Sprague-Dawley rat at 1 ml/kg,iv measured upto 24 hrs by UPLC-MS/MS analysis; assay type: ADME; conditions: in vivo, read-out: Vdss
[46] = Relative Cmax ratio of Atazanavir in Sprague-Dawley rat at 1 ml/kg,iv measured upto 24 hrs by UPLC-MS/MS analysis; assay type: ADME; conditions: in vivo
[47] = Relative AUC ratio of Atazanavir in Sprague-Dawley rat at 1 ml/kg,iv measured upto 24 hrs by UPLC-MS/MS analysis; assay type: ADME; conditions: in vivo
[48] = Fold ratio of total AUC of Atazanavir in Sprague-Dawley rat at 1 ml/kg,iv measured upto 24 hrs by UPLC-MS/MS analysis; assay type: ADME; conditions: in vivo
[49] = Ratio of Cmax/Cmin of Atazanavir in Sprague-Dawley rat at 1 ml/kg,iv measured after 24 hrs by UPLC-MS/MS analysis; assay type: ADME; conditions: in vivo
[50] = Ratio of AUC of Atazanavir in Sprague-Dawley rat at 1 ml/kg,iv measured upto 24 hrs by UPLC-MS/MS analysis; assay type: ADME; conditions: in vivo

Q: For `COC(=O)N[C@H](C(=O)N[C@@H](Cc1ccccc1)[C@H](CN(Cc1ccc(-c2ccccn2)cc1)NC(=O)[C@@H](NC(=O)OC)C(C)(C)C)OC(=O)OC(OC(=O)[C@@H](N)C(C)C)C(C)C)C(C)(C)C` (stereo in doubt; 3s), which t1/2 [1] is on record?
A: Its t1/2 is 4.9 h.

Q: And the solubility [2]?
A: The solubility was greater than 2100 µg/mL.

Q: What about the solubility [3] of the same molecule?
A: The solubility was greater than 2300 µg/mL.

Q: And the Cmax [4]?
A: Its Cmax is 19 nM.

Q: And the Tmax [5]?
A: Its Tmax is 0.6 h.

Q: What about the AUC(0-t) at 24 h [6] of the same molecule?
A: Its AUC(0-t) at 24 h is 0.044 µM·h.

Q: And the Ratio [7]?
A: Its Ratio is 3.8.

Q: And the Ratio [8]?
A: The Ratio was 6.7.

Q: What about the Ratio [9] of the same molecule?
A: The Ratio was 6.8.

Q: What about the Ratio [10] of the same molecule?
A: Its Ratio is 204.8.

Q: And the Ratio [11]?
A: The Ratio was 0.02.

Q: What about the half-life [12] of the same molecule?
A: The half-life was 0.35 h.

Q: And the half-life [13]?
A: Its half-life is 0.433 h.

Q: And the half-life [14]?
A: Its half-life is 1.43 h.

Q: What about the half-life [15] of the same molecule?
A: Its half-life is 1.43 h.

Q: And the half-life [16]?
A: The half-life was 3.73 h.

Q: What about the half-life [17] of the same molecule?
A: Its half-life is 4.82 h.

Q: And the half-life [18]?
A: The half-life was 2.45 h.

Q: What about the half-life [19] of the same molecule?
A: The half-life was 2.82 h.

Q: What about the half-life [20] of the same molecule?
A: Its half-life is greater than 2 h.

Q: What about the half-life [21] of the same molecule?
A: The half-life was greater than 2 h.

Q: What about the half-life [22] of the same molecule?
A: Its half-life is greater than 2 h.

Q: What about the half-life [23] of the same molecule?
A: The half-life was 1.83 h.

Q: What about the half-life [24] of the same molecule?
A: The half-life was 0.833 h.

Q: What about the half-life [25] of the same molecule?
A: The half-life was 9 min.

Q: What about the half-life [26] of the same molecule?
A: The half-life was 9 min.

Q: And the half-life [27]?
A: Its half-life is 1.18 h.

Q: What about the half-life [28] of the same molecule?
A: The half-life was 1.78 h.

Q: What about the half-life [29] of the same molecule?
A: Its half-life is 0.883 h.

Q: What about the half-life [30] of the same molecule?
A: The half-life was 0.4 h.

Q: And the half-life [31]?
A: The half-life was 0.967 h.

Q: What about the Cmax [32] of the same molecule?
A: Its Cmax is 189 nM.

Q: And the Tmax [33]?
A: Its Tmax is 0.8 h.

Q: What about the AUC(0-t) at 24 h [34] of the same molecule?
A: Its AUC(0-t) at 24 h is 0.601 µM·h.

Q: And the Ratio [35]?
A: Its Ratio is 2.1.

Q: And the Ratio [36]?
A: Its Ratio is 1.32.

Q: What about the Ratio [37] of the same molecule?
A: The Ratio was 1.35.

Q: What about the Ratio [38] of the same molecule?
A: Its Ratio is 329.4.

Q: What about the Ratio [39] of the same molecule?
A: The Ratio was 0.02.

Q: And the Cmax [40]?
A: The Cmax was 151 nM.

Q: And the AUC(0-t) at 24 h [41]?
A: The AUC(0-t) at 24 h was 0.17 µM·h.

Q: What about the concentration at 24 h [42] of the same molecule?
A: Its concentration at 24 h is 2 nM.

Q: What about the clearance [43] of the same molecule?
A: The clearance was 102 mL/min/kg.

Q: And the half-life [44]?
A: The half-life was 6 h.

Q: What about the Vd [45] of the same molecule?
A: Its Vd is 35 L/kg.

Q: And the Ratio [46]?
A: The Ratio was 2.07.

Q: What about the Ratio [47] of the same molecule?
A: Its Ratio is 7.

Q: And the Ratio [48]?
A: Its Ratio is 7.3.

Q: What about the Ratio [49] of the same molecule?
A: The Ratio was 1040.4.

Q: What about the Ratio [50] of the same molecule?
A: Its Ratio is 0.04.
